ChEMBL document CHEMBL5291721, “A preclinical secondary pharmacology resource illuminates target-adverse drug reaction associations of marketed drugs” (Nat Commun, 2023)

How the values were obtained:
Thromboxane A2 receptor = target: T1, Thromboxane A2 receptor (Homo sapiens, UniProt P21731); assay type: functional, cell-based
T1 sequence (P21731 whole entry): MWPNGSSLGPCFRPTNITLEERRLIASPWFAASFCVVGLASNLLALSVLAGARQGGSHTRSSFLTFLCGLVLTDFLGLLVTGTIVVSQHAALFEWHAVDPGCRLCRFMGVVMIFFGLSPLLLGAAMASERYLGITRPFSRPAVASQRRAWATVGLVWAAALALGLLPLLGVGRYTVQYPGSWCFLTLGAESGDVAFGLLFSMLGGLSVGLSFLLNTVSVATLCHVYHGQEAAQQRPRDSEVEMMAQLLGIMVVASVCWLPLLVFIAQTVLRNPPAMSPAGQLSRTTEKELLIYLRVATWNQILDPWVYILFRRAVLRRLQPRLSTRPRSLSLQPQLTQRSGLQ

[1] = target: Beta-3 adrenergic receptor (Homo sapiens, UniProt P13945)
Sequence of Beta-3 adrenergic receptor (P13945 whole entry): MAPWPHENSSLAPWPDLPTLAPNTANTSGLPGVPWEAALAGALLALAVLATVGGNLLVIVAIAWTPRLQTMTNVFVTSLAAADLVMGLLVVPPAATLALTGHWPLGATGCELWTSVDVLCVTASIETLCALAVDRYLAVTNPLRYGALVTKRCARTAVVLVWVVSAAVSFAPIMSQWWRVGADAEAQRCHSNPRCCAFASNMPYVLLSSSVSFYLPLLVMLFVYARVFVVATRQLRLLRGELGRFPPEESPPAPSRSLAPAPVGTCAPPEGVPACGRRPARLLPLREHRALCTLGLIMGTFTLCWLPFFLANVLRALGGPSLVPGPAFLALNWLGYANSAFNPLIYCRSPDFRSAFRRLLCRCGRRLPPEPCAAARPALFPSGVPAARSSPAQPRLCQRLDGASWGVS

B1 bradykinin receptor = target: T2, B1 bradykinin receptor (Homo sapiens, UniProt P46663)
T2 sequence (P46663 whole entry): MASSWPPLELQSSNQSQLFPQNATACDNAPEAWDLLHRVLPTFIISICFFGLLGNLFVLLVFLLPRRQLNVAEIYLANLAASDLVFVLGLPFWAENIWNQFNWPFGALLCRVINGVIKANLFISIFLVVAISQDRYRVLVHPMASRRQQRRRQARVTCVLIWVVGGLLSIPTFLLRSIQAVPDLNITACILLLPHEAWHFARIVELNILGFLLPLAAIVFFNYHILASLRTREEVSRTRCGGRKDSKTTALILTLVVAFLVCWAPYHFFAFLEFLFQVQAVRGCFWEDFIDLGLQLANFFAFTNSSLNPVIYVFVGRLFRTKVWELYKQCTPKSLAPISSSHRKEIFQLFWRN

D(4) dopamine receptor = target: T3, D(4) dopamine receptor (Homo sapiens, UniProt P21917)
T3 sequence (P21917 whole entry): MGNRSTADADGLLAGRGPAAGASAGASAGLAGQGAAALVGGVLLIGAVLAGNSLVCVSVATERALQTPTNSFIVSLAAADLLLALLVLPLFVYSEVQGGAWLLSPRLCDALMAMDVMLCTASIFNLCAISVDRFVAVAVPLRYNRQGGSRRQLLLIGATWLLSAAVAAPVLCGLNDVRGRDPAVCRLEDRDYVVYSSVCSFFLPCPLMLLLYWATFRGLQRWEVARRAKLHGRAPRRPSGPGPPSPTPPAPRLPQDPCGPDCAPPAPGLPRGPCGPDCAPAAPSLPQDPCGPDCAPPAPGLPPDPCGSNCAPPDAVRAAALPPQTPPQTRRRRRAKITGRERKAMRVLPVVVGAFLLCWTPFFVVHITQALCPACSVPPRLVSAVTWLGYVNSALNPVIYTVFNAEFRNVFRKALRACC

Estrogen receptor beta = Estrogen receptor beta (Homo sapiens, UniProt Q92731)
Sequence of Estrogen receptor beta (Q92731 whole entry): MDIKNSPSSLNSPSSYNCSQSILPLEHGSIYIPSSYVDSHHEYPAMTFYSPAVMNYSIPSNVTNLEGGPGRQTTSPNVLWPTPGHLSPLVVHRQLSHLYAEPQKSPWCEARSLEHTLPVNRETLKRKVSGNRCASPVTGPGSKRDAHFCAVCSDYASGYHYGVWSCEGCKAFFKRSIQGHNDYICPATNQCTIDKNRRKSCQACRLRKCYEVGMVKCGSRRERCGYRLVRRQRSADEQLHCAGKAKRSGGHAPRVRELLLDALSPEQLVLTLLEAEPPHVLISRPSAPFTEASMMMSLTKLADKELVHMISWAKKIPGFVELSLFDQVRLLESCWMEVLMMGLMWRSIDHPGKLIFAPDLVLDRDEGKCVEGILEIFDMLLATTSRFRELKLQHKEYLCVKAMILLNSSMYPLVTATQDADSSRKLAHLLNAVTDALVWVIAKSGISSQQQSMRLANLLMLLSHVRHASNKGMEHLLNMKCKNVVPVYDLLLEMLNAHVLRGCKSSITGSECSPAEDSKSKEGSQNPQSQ

[2] = target: T4, Neuropeptide Y receptor type 2 (Homo sapiens, UniProt P49146)
T4 sequence (P49146 whole entry): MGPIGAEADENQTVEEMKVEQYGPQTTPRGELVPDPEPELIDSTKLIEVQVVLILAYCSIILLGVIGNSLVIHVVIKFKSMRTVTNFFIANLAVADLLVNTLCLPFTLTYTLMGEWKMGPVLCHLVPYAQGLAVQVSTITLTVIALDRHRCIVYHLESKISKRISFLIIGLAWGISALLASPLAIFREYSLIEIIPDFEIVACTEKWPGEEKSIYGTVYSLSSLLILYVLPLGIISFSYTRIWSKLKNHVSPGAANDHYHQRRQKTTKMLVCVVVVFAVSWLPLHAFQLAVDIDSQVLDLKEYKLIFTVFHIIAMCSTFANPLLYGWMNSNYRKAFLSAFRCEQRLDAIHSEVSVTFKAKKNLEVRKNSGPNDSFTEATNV

[3] = target: Synaptic vesicular amine transporter (Rattus norvegicus, UniProt Q01827); assay type: functional
Sequence of Synaptic vesicular amine transporter (Q01827 whole entry): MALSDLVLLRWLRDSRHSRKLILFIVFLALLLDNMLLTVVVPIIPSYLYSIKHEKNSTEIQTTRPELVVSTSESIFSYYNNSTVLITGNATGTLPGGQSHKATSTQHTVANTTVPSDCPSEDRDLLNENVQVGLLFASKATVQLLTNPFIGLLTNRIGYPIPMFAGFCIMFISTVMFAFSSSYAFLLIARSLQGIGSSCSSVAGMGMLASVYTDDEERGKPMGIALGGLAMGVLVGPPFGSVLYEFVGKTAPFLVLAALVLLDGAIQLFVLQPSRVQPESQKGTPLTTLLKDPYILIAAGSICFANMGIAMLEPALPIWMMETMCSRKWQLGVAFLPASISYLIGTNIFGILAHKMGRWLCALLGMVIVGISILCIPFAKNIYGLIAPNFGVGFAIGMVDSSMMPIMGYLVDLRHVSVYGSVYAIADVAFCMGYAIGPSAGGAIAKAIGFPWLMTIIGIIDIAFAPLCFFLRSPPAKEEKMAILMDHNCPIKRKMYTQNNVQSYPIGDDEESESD

[4] = target: T5, Alpha-1A adrenergic receptor (Homo sapiens, UniProt P35348)
T5 sequence (P35348 whole entry): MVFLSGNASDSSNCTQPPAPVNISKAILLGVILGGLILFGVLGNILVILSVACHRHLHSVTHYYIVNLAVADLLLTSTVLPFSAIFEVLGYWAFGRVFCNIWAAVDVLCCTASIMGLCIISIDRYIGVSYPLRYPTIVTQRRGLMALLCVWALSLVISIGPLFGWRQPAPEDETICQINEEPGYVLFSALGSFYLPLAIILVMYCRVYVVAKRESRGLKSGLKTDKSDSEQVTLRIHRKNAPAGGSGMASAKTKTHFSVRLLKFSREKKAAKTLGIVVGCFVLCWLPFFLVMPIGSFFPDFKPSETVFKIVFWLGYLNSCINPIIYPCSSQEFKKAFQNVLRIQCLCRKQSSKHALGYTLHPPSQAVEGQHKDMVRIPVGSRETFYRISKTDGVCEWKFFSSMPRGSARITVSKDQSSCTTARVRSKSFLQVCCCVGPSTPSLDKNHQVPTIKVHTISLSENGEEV
Note: assay procedure not described here.

Row | SMILES | AC50 [1] | AC50 (B1 bradykinin receptor) | AC50 [2] | AC50 [3] | also measured
1 | C[C@@H](O)[C@H]1C(=O)N2C(C(=O)O)=C(SCCN=CN)C[C@H]12 [IMIPENEM ANHYDROUS] | – | – | – | – | AC50 (Thromboxane A2 receptor): > 300 µM
2 | c1cnc2cc3c(cc2n1)[C@@H]1CNC[C@H]3C1 [VARENICLINE] | – | – | – | – | AC50 (Thromboxane A2 receptor): > 30 µM
3 | CN(C)CCC=C1c2ccccc2CCc2ccccc21 [AMITRIPTYLINE] | > 30 µM | > 30 µM | > 30 µM | – | AC50 (D(4) dopamine receptor): 0.819 µM; AC50 (Estrogen receptor beta): > 30 µM; AC50 (Thromboxane A2 receptor): > 30 µM
4 | CC(=O)SCC(Cc1ccccc1)C(=O)NCC(=O)OCc1ccccc1 (stereo unspecified) [RACECADOTRIL] | > 30 µM | – | – | – | –
5 | Cc1ccc(C(C)C)c(O)c1 [THYMOL] | – | – | – | 25 µM | –
6 | N#Cc1ccnc(N2C(=O)CC[C@H]2C(=O)N(c2cncc(F)c2)[C@H](C(=O)NC2CC(F)(F)C2)c2ccccc2Cl)c1 [IVOSIDENIB] | – | – | – | > 30 µM | –
7 | C#CCN(C)Cc1ccccc1 [PARGYLINE] | – | – | – | – | AC50 [4]: > 30 µM
8 | O=c1[nH]c2ccccc2n1CCN1CCN(c2cccc(C(F)(F)F)c2)CC1 [FLIBANSERIN] | – | – | – | 0.072 µM | –
9 | CO[C@@H]1[C@@H](OC(N)=O)[C@@H](O)[C@H](Oc2ccc3c(O)c(NC(=O)c4ccc(O)c(CC=C(C)C)c4)c(=O)oc3c2C)OC1(C)C [NOVOBIOCIN] | – | – | – | – | AC50 (Thromboxane A2 receptor): > 30 µM
10 | CN1CC2c3ccccc3Oc3ccc(Cl)cc3C2C1 (stereo unspecified) [ASENAPINE] | – | – | – | 1.05 µM | –
11 | O=C1[C@@H]2[C@H]3CC[C@H](C3)[C@@H]2C(=O)N1C[C@@H]1CCCC[C@H]1CN1CCN(c2nsc3ccccc23)CC1 [LURASIDONE] | – | – | – | 0.0699 µM | –
12 | CC#CC(=O)N1CCC[C@H]1c1nc(-c2ccc(C(=O)Nc3ccccn3)cc2)c2c(N)nccn12 [ACALABRUTINIB] | – | – | – | – | AC50 [4]: > 30 µM
13 | O=C(Cc1cccs1)N[C@@H]1C(=O)N2C(C(=O)[O-])=C(C[n+]3ccccc3)CS[C@H]12 [CEPHALORIDINE] | – | – | – | – | AC50 [4]: > 30 µM
14 | CC(=O)Oc1ccccc1C(=O)O [ASPIRIN] | > 30 µM | > 30 µM | > 30 µM | – | AC50 (D(4) dopamine receptor): > 10 µM; AC50 (Estrogen receptor beta): > 30 µM; AC50 (Thromboxane A2 receptor): > 30 µM
15 | OCCOCCN1CCN(C(c2ccccc2)c2ccc(Cl)cc2)CC1 (stereo unspecified) [HYDROXYZINE] | > 30 µM | > 30 µM | > 30 µM | – | AC50 (D(4) dopamine receptor): 8.54 µM
16 | CCCCCCO[C@@H](C)c1cccc(-c2csc(NC(=O)c3cc(Cl)c(/C=C(\C)C(=O)O)c(Cl)c3)n2)c1OC [LUSUTROMBOPAG] | – | – | – | 4.1 µM | AC50 [4]: > 30 µM
17 | CN(C)CCCC1(c2ccc(F)cc2)OCc2cc(C#N)ccc21 (stereo unspecified) [CITALOPRAM] | > 30 µM | > 30 µM | > 30 µM | – | AC50 (D(4) dopamine receptor): > 10 µM; AC50 (Estrogen receptor beta): > 30 µM
18 | OC[C@H]1NC[C@H](O)[C@@H](O)[C@H]1O | – | – | – | > 30 µM | –
19 | CCOC(=O)[C@H](CCc1ccccc1)N[C@@H](C)C(=O)N1Cc2ccccc2C[C@H]1C(=O)O | > 30 µM | > 30 µM | > 30 µM | – | AC50 (D(4) dopamine receptor): > 10 µM; AC50 (Estrogen receptor beta): > 30 µM
20 | C[C@]12CCC(=O)C=C1CC[C@H]1[C@@H]3CC[C@](O)(C(=O)CO)[C@@]3(C)C[C@H](O)[C@@]12F [FLUDROCORTISONE] | > 30 µM | > 30 µM | > 30 µM | – | AC50 (Estrogen receptor beta): > 30 µM
21 | CCCCCCCC/C=C\CCCCCCCC(=O)O [OLEIC ACID] | – | – | – | 4.7 µM | –
22 | NCC1(CC(=O)O)CCCCC1 [GABAPENTIN] | > 30 µM | > 30 µM | > 30 µM | – | AC50 (D(4) dopamine receptor): > 10 µM; AC50 (Thromboxane A2 receptor): > 30 µM
23 | C[C@H](Nc1ncnc2[nH]cnc12)c1cc2cccc(Cl)c2c(=O)n1-c1ccccc1 [DUVELISIB] | – | – | – | – | AC50 [4]: > 30 µM
24 | O=C(O)[C@@H](S)[C@@H](S)C(=O)O | – | – | – | – | AC50 [4]: > 30 µM
25 | Nc1c2c(nc3ccccc13)CCCC2O (stereo unspecified) [VELNACRINE] | – | – | – | – | AC50 (Thromboxane A2 receptor): > 30 µM
26 | Cc1c(C)c2c(c(C)c1O)CCC(C)(COc1ccc(CC3SC(=O)NC3=O)cc1)O2 (stereo unspecified) [TROGLITAZONE] | > 30 µM | > 30 µM | > 30 µM | – | AC50 (Estrogen receptor beta): > 30 µM
27 | Cn1cnc2c(F)c(Nc3ccc(Br)cc3F)c(C(=O)NOCCO)cc21 [BINIMETINIB] | – | – | – | > 30 µM | AC50 (Thromboxane A2 receptor): > 30 µM
28 | Nc1nnc(-c2cccc(Cl)c2Cl)c(N)n1 [LAMOTRIGINE] | > 30 µM | > 30 µM | > 30 µM | 18 µM | AC50 (D(4) dopamine receptor): > 10 µM; AC50 (Estrogen receptor beta): > 30 µM
